PMC7496931, “Activation of Sirtuin 2 Inhibitors Employing Photoswitchable Geometry and Aqueous Solubility” (Chemmedchem, 2020)

What was measured:
[1] = UV/Vis spectra and half-life of thermal Z→E isomerization; type: physicochemical; design: k of thermal Z→E isomerization (non-linear regression): unit not given here; conditions: for λΔ/max absorption maximum at thermal equilibrium: 50 μM in DMSO/assay buffer; for k of thermal Z→E isomerization (non-linear regression): 50 μM
Protocol: (§1) Photochemistry: All photoisomerization experiments were conducted under ruby light of 630 nm and total exclusion of daylight. Illumination was executed using a Bio‐Link 254 Crosslinker from Vilber‐Lourmat equipped with six Vilber‐Lourmat T8‐L lamps (8 W, 365 nm). Visible light radiation of 630 nm (ruby) and 452 nm (blue) was derived from a Paulmann FlexLED 3D strip. All compounds were irradiated in solution using spectrophotometric grade solvents. Photoisomerization and UV/Vis‐spectra measurement was conducted in quartz glass cuvettes (114‐QS, Hellma Analytics) at room temperature.
UV/Vis Spectra and Half-Life of Thermal Isomerization
The half-life of the thermal Z→E isomerization after 5 minutes of 365 nm irradiation was determined by UV/Vis-spectroscopy. Therefore, solutions of the respective compounds (50 µM) in 5%, 50% or 90% DMSO in enzyme assay buffer (v/v) were prepared. An initial spectrum of the thermal equilibrium was recorded. After 5 minutes of irradiation with 365 nm the increase of absorbance at the thermal equilibrium maximum (λ∆max) was recorded as exemplified by compound 15c (Figure S3). Absorbance at λ = λ ∆max was plotted as a function of time. Non-linear regression yielded the half-life of the thermal Z→E isomerization (Table S1). For extrapolation of the reaction kinetics, the plateau value was set to the initial absorbance at λ=λ∆max. The following equation was used for non-linear regression:
y = (y0 − Plateau)e−kx + Plateau
Figure S3: Left: UV-Vis spectrum of 15c (50 µM) in assay buffer (5% DMSO, v/v) at the thermal equilibrium (∆) and the photostationary state (PSS) after UV irradiation (365 nm). Right:
Absorbance of 15c (50 µm) in assay buffer (5% DMSO, v/v) at λ∆max = 328 nm after 5 minutes of UV (365 nm) irradiation.
(1 picture or pasted object on this page, not shown here)

[2] = Photoisomer distribution (PSD) by HPLC-ELSD; type: physicochemical; conditions: HPLC in MeOH/water, ELSD; for E/Z [%] PSD @ 365 nm: after 365 nm irradiation; for E/Z [%] PSD @ 452 nm: after 452 nm irradiation
Protocol: as §1

[3] = system: urinary bladder cancer cell line RT‐4; experiment: Cell-based activity assay (western blot of acetylation levels); design: species or system human; conditions: RT-4 cells, 50 μM, 24 h, compounds irradiated (365 nm) prior to incubation
Protocol: Reductive stability of 15 c, 15 f and 20 a in the presence of the cellular reductant glutathione (5 mM) was confirmed by HPLC analysis (Figure S5, Table S2). For the cell‐based activity assay, we illuminated the compounds solved in DMSO with UV light (365 nm) prior to incubation with the cells. […] As expected, 15 c and 15 f increased the levels of acetylated lysines H3K18 and H3K56, which are both affirmed substrates of Sirt2. In addition, we found H4K8 hyperacetylation even though this site is usually not affected by sirtuin catalysed deacetylation, indicating a further mode of action. […] In Figure 6, we show the relative results, whereby the acetylation product was related to total target protein and to the vehicle control. Again, we found an increase in acetylated histones induced by 15 c and 15 f which proves activity of these two compounds in living cells.
Figure 6 Relative acetylation levels of protein targets after incubation with compounds at 50 μM for 24 h in urinary bladder cancer cell line RT‐4 (mean of n=2). […]
Cell-Based Activity Assay
To qualify inhibitory activity of compounds on sirtuins we used the western blot technique.
Therefore, we used precast “Mini-Protean TGX Stain-Free Gels” and corresponding “Trans-Blot Turbo Transfer Pack Mini” PVDF membranes (Biorad, Germany). For sample preparation, […]
Sirt2 in our cell line stock (Data not shown), obtained from “Deutsche Sammlung von Mikroorganismen und Zellkulturen” (DSMZ), Germany. Cells were grown in RPMI 1640 cell medium supplemented with 10% fetal bovine serum and 1% penicillin/streptomycin purchased from PAN Biotec, Germany and stored in a humidified incubator at 37 °C with 5% CO2 atmosphere. For sample preparation, cells were harvested with Trypsin/EDTA and counted in a Beckman’s Coulter Counter. In six well plates, […] were seeded out in 3 mL medium and let allow to attach for 24 h. Stock solutions of compounds (1000-fold) were prepared with DMSO and illuminated with UV light (365 nm) for 5 min. Then, cells were exposed to compounds at a final concentration of 50 µM and incubated for 24 h. Cells were detached with Trypsin/EDTA and washed with phosphate buffered saline (PBS) by centrifugation at 500 g for 5 min and resuspended in PBS. Cell pellets were lysed with a lysis buffer containing Tris […]
and freshly added 1% protease inhibitor cocktail (Sigma Aldrich, Germany) on ice, followed by sonification for 30 minutes. The protein concentration was determined by the Bradford method against bovine serum albumin (BSA) as standard. Each slot of the precast gel was loaded with 30 µg protein followed by an electrophoretic separation and a transfer onto PVDF membranes.
Blots were blocked with 10% non-fat milk powder in Tris-buffered saline containing 20 mM Tris, 145 mM NaCl and Tween 0.5% (TBST) for 2 h and incubated with primary antibody in 1:1000 dilutions (in TBST and 1% BSA) over night at 4 °C. After washing procedure, blots were incubated with secondary antibody conjugated with horse radish peroxidase (1:5000 in TBST and 1% BSA) for 2 h. All used antibodies were obtained from cell signalling (UK): anti ac.H3K9 […]
anti ac.α-tubulin (#5335), anti α-tubulin (#2125) and anti rabbit-HRP (#7074). Target protein bands were detected with Clarity Western ECL Substrate (Biorad, Germany) and recorded at an Advanced Fluorescence Imager (INTAS, Germany). Band intensity was related to internal standard of the TGX Stain-Free gels as loading control.
In order to verify the conformations of Z-15c and Z-15f obtained from our molecular docking experiments, a two-dimensional dihedral analysis was performed using MOE with 3-(2-phenyldiazenyl)-pyridine as reference compound. Both dihedrals were rotated by 360° in 5° steps. At each step, the potential energy was calculated with AMBER force field parameters and AM1-BCC partial charges applied. The diazenyl double bond of both compounds is nearly […]

Structure (SMILES)	λΔ/max absorption maximum at thermal equilibrium ([1]; 5 % DMSO (v/v))	k of thermal Z→E isomerization (non-linear regression) ([1]; 5 % DMSO (v/v) in assay buffer)	E/Z [%] PSD @ 365 nm [2]	E/Z [%] PSD @ 452 nm [2]	H4K8 acetylation [3]	acetylation level of α-tubulin [3]	expression of total histone H3 [3]	expression of total α-tubulin protein [3]	level of acetylated lysine H3K18 [3]	level of acetylated lysine H3K56 [3]	total H4 [3]	melting point	λΔ/max absorption maximum at thermal equilibrium ([1]; 90 % DMSO (v/v))	k of thermal Z→E isomerization (non-linear regression) ([1]; 90 % DMSO (v/v) in assay buffer)
CC(C)(C)OC(=O)NCc1ccc(/N=N/c2cncc(C(N)=O)c2)cc1 [15 c]	329 nm	0.002173	11/89	86/14	hyperacetylation	none of the compounds influenced	no effect	no effect	increased	increased	slight increase	212.1 °C (dec.)		
CCCCCCCCCC(=O)NCc1ccc(/N=N/c2cncc(C(N)=O)c2)cc1 [15 f]			5/95	79/21	hyperacetylation	none of the compounds influenced	no effect	no effect	increased	increased	slight increase	259.5 °C	333 nm	0.006796
